US12685312B2, “Sulfonamide apyrase inhibitors” (Texas Crop Science, Inc., priority 2022, dated 2026)

Test system: apyrase
Assay: Screen for apyrase inhibitors (Method 1, in vitro phosphate-release absorbance assay)
Format: biochemical
Conditions: inhibitor conc at 1 mM stock, 1 hr room temperature, absorbance 630 nm; rounded average of two assay results
In short: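 Phosphate-release colorimetric assay (Windsor method) in 60 mM Hepes, 3 mM MgCl2, 3 mM CaCl2, 3 mM ATP, pH 6.5, with compound or DMSO control added. Released phosphate developed with ammonium molybdate and ascorbic acid/TCA, then stopped with citrate/acetic acid.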

| % Inhibition of Apyrase [%] | Structure (SMILES) |
| --- | --- |
| 58 | COc1ccc2c(c1)CCCN2C(=O)c1ccc(S(=O)(=O)N2CCCc3ccccc32)cc1 [I-866, (4-((3,4-dihydroquinolin-1(2H)-yl)sulfonyl)phenyl)(6-methoxy-3,4-dihydroquinolin-1(2H)-yl)methanone] |
| 58 | COc1ccccc1N(C)S(=O)(=O)c1ccc(C(=O)N2CCSc3ccccc32)cc1 [I-867, 4-(3,4-dihydro-2H-benzo[b][1,4]thiazine-4-carbonyl)-N-(2-methoxyphenyl)-N-methylbenzenesulfonamide] |
| 58 | CCN(CC)S(=O)(=O)c1cccc(NC(=O)c2ccc(S(=O)(=O)N3CCCc4ccccc43)cc2)c1 [I-868, N-(3-(N,N-diethylsulfamoyl)phenyl)-4-((3,4-dihydroquinolin-1(2H)-yl)sulfonyl)benzamide] |
| 57 | COc1ccccc1N(C)S(=O)(=O)c1ccc(C(=O)N2CCc3ccc([N+](=O)[O-])cc32)cc1 [I-869, N-(2-methoxyphenyl)-N-methyl-4-(6-nitroindoline-1-carbonyl)benzenesulfonamide] |
| 57 | COc1ccccc1N(C)S(=O)(=O)c1ccc(C(=O)N2CCc3ccccc32)cc1 [I-870, 4-(indoline-1-carbonyl)-N-(2-methoxyphenyl)-N-methylbenzenesulfonamide] |
| 56 | COc1ccc2c(c1)CCCN2C(=O)c1ccc(S(=O)(=O)Nc2ccccc2)cc1 [I-871, 4-(6-methoxy-1,2,3,4-tetrahydroquinoline-1-carbonyl)-N-phenylbenzenesulfonamide] |
| 56 | COc1ccc2c(c1)CCCN2C(=O)c1ccc(S(=O)(=O)Nc2ccccc2C)cc1 [I-872, 4-(6-methoxy-1,2,3,4-tetrahydroquinoline-1-carbonyl)-N-(o-tolyl)benzenesulfonamide] |
| 56 | COc1ccc(C(C)(C)C)cc1NC(=O)c1ccc(S(=O)(=O)N(C)c2ccccc2OC)cc1 [I-873, N-(5-(tert-butyl)-2-methoxyphenyl)-4-(N-(2-methoxyphenyl)-N-methylsulfamoyl)benzamide] |
| 56 | CNC(=O)c1ccc(NC(=O)c2ccc(S(=O)(=O)Nc3ccc(C)cc3)cc2)cc1 [I-874, N-methyl-4-(4-(N-(p-tolyl)sulfamoyl)benzamido)benzamide] |
| 55 | O=C(Nc1ccc2c(c1)OCCO2)c1ccc(C(=O)Nc2ccc3c(c2)OCCO3)cc1 [I-875, N1,N4-bis(2,3-dihydrobenzo[b][1,4]dioxin-6-yl)terephthalamide] |
| 54 | O=C(Nc1ccc2c(c1)OCO2)c1ccc(C(=O)Nc2ccc3c(c2)OCO3)cc1 [I-876, N1,N4-bis(benzo[d][1,3]dioxol-5-yl)terephthalamide] |
| 54 | COc1ccccc1N(C)S(=O)(=O)c1ccc(C(=O)N2CCCc3ccccc32)cc1 [I-877, N-(2-methoxyphenyl)-N-methyl-4-(1,2,3,4-tetrahydroquinoline-1-carbonyl)benzenesulfonamide] |
| 54 | COc1ccccc1N(C)S(=O)(=O)c1ccc(C(=O)N2CCCSc3ccccc32)cc1 [I-878, N-(2-methoxyphenyl)-N-methyl-4-(2,3,4,5-tetrahydrobenzo[b][1,4]thiazepine-5-carbonyl)benzenesulfonamide] |
| 53 | Cc1ccccc1NS(=O)(=O)c1ccc(C(=O)N2c3ccccc3CC2C)cc1 (centres unmarked) [I-879, 4-(2-methylindoline-1-carbonyl)-N-(o-tolyl)benzenesulfonamide] |
| 53 | COc1ccccc1NC(=O)c1ccc(S(=O)(=O)N(C)c2ccccc2OC)cc1 [I-880, N-(2-methoxyphenyl)-4-(N-(2-methoxyphenyl)-N-methylsulfamoyl)benzamide] |
| 53 | CC(=O)c1cc2c(cc1NC(=O)c1ccc(S(=O)(=O)N3CCCc4ccccc43)cc1)OCO2 [I-881, N-(6-acetylbenzo[d][1,3]dioxol-5-yl)-4-((3,4-dihydroquinolin-1(2H)-yl)sulfonyl)benzamide] |
| 53 | COc1ccc(NC(=O)c2cccc(S(=O)(=O)Nc3ccc4c(c3)OCO4)c2)cc1Cl [I-882, 3-(N-(benzo[d][1,3]dioxol-5-yl)sulfamoyl)-N-(3-chloro-4-methoxyphenyl)benzamide] |
| 51 | COc1ccc2c(c1)CCCN2C(=O)c1ccc(S(=O)(=O)Nc2ccccc2F)cc1 [I-883, N-(2-fluorophenyl)-4-(6-methoxy-1,2,3,4-tetrahydroquinoline-1-carbonyl)benzenesulfonamide] |
| 48 | Cc1ccc(NS(=O)(=O)c2ccc(C(=O)N3CCc4cc(S(N)(=O)=O)ccc43)cc2)cc1 [I-884, 1-(4-(N-(p-tolyl)sulfamoyl)benzoyl)indoline-5-sulfonamide] |
| 47 | CCN(C(=O)c1ccc(S(=O)(=O)N2CCCc3ccccc32)cc1)c1ccccc1 [I-885, 4-((3,4-dihydroquinolin-1(2H)-yl)sulfonyl)-N-ethyl-N-phenylbenzamide] |
| 43 | O=C(Nc1ccc(NS(=O)(=O)c2ccc3c(c2)OCCO3)cc1)c1cccc(N2CCCC2=O)c1 [I-886, N-(4-((2,3-dihydrobenzo[b][1,4]dioxine)-6-sulfonamido)phenyl)-3-(2-oxopyrrolidin-1-yl)benzamide] |

| % Inhibition of Apyrase [%] | Structure (SMILES) |
| --- | --- |
| 43 | COc1ccc(NS(=O)(=O)c2ccc(C(=O)Nc3ccc4c(c3)OCCO4)cc2)cc1 [I-887, N-(2,3-dihydrobenzo[b][1,4]dioxin-6-yl)-4-(N-(4-methoxyphenyl)sulfamoyl)benzamide] |
| 43 | Cc1ccc(NS(=O)(=O)c2ccc(C(=O)Nc3ccc(C)c(C)c3)cc2)cc1 [I-888, N-(3,4-dimethylphenyl)-4-(N-(p-tolyl)sulfamoyl)benzamide] |
| 39 | Cc1nc2ccc(NC(=O)c3ccc(S(=O)(=O)N4CCCc5ccccc54)cc3)cc2s1 [I-889, 4-((3,4-dihydroquinolin-1(2H)-yl)sulfonyl)-N-(2-methylbenzo[d]thiazol-6-yl)benzamide] |
| 32 | CN(c1ccccc1)S(=O)(=O)c1ccc(C(=O)N2CC(=O)Nc3ccccc32)cc1 [I-890, N-methyl-4-(3-oxo-1,2,3,4-tetrahydroquinoxaline-1-carbonyl)-N-phenylbenzenesulfonamide] |
| 30 | Cc1ccc(NS(=O)(=O)c2ccc(C(=O)N3CC4CCCN4Cc4ccccc43)cc2)cc1 (centres unmarked) [I-891, 4-(2,3,5,10,11,11a-hexahydro-1H-benzo[e]pyrrolo[1,2-a][1,4]diazepine-10-carbonyl)-N-(p-tolyl)benzenesulfonamide] |
| 29 | COc1ccc([N+](=O)[O-])cc1NS(=O)(=O)c1ccc(C(=O)N2CCc3ccccc32)cc1 [I-892, 4-(indoline-1-carbonyl)-N-(2-methoxy-5-nitrophenyl)benzenesulfonamide] |
| 20 | Cc1ccccc1NS(=O)(=O)c1ccc(C(=O)Nc2ccccc2C(=O)NC2CC2)cc1 [I-893, N-cyclopropyl-2-(4-(N-(o-tolyl)sulfamoyl)benzamido)benzamide] |
| 18 | Cc1cccc(NS(=O)(=O)c2ccc(C(=O)Nc3cccc(C(=O)N(C)C)c3)cc2)c1C [I-894, 3-(4-(N-(2,3-dimethylphenyl)sulfamoyl)benzamido)-N,N-dimethylbenzamide] |
| 10 | O=C(Nc1ccc(N2CCOCC2)cc1)c1ccc(S(=O)(=O)N2CCCc3ccccc32)cc1 [I-895, 4-((3,4-dihydroquinolin-1(2H)-yl)sulfonyl)-N-(4-morpholinophenyl)benzamide] |
| 65 | COc1ccccc1NC(=O)c1ccc(NS(=O)(=O)c2ccc3c(c2)OCCO3)cc1 [I-898, 4-((2,3-dihydrobenzo[b][1,4]dioxine)-6-sulfonamido)-N-(2-methoxyphenyl)benzamide] |
| 65 | Cc1ccc(NC(=O)c2ccc(NS(=O)(=O)c3ccc(F)c(F)c3)cc2)cc1 [I-899, 4-((3,4-difluorophenyl)sulfonamido)-N-(p-tolyl)benzamide] |
| 65 | CCOc1ccc(NC(=O)c2ccc(NS(=O)(=O)c3cccc(C(F)(F)F)c3)cc2)cc1 [I-900, N-(4-ethoxyphenyl)-4-((3-(trifluoromethyl)phenyl)sulfonamido) benzamide] |
| 64 | O=C(Nc1ccc(SC(F)F)cc1)c1ccc(NS(=O)(=O)c2cccc([N+](=O)[O-])c2)cc1 [I-901, N-(4-((difluoromethyl)thio)phenyl)-4-((3-nitrophenyl)sulfonamido)benzamide] |
| 64 | O=C(Nc1ccc(F)cc1)c1ccc(NS(=O)(=O)c2ccc(Cl)c([N+](=O)[O-])c2)cc1 [I-902, 4-((4-chloro-3-nitrophenyl)sulfonamido)-N-(4-fluorophenyl)benzamide] |
| 62 | COc1cccc(S(=O)(=O)Nc2ccc(C(=O)Nc3ccc4c(c3)OCCO4)cc2)c1 [I-903, N-(2,3-dihydrobenzo[b][1,4]dioxin-6-yl)-4-((3-methoxyphenyl)sulfonamido)benzamide] |
| 62 | O=C(Nc1cccc(F)c1)c1ccc(NS(=O)(=O)c2ccccc2)cc1 [I-904, N-(3-fluorophenyl)-4-(phenylsulfonamido)benzamide] |
| 61 | Cc1cccc(NC(=O)c2ccc(NS(=O)(=O)c3ccc(F)c(Cl)c3)cc2)c1 [I-905, 4-((3-chloro-4-fluorophenyl)sulfonamido)-N-(m-tolyl)benzamide] |
| 61 | O=C(Nc1cccc(Cl)c1)c1ccc(NS(=O)(=O)c2ccc(F)c(F)c2)cc1 [I-906, N-(3-chlorophenyl)-4-((3,4-difluorophenyl)sulfonamido)benzamide] |
| 61 | Cc1ccc(C)c(S(=O)(=O)Nc2ccc(C(=O)Nc3ccccc3F)cc2)c1 [I-907, 4-((2,5-dimethylphenyl)sulfonamido)-N-(2-fluorophenyl)benzamide] |
| 61 | O=C(Nc1ccc2c(c1)OC1(CCCC1)O2)c1ccc(NS(=O)(=O)c2ccccc2)cc1 [I-908, 4-(phenylsulfonamido)-N-(spiro[benzo[d][1,3]dioxole-2,1′-cyclopentan]-5-yl)benzamide] |
